We go through 1 compound from patent US11253515B2, “Pharmaceutical compositions and dosage forms” (IGNYTA, INC., priority 2017, dated 2022).

The target of data set [1] is anaplastic lymphoma kinase (ALK) (Homo sapiens, UniProt Q9UM73). Particulars: background statement; cited from earlier work.
A short description of data set [2]: Excipient compatibility of 1:1 acid admixtures, HPLC after three months storage. Type of data set: physicochemical. Particulars: 1:1 weight ratio dry powder mixture, open vial. As to the method: (§1) The mixtures were prepared in duplicate for each sample, and stored in open top, 4 mL glass vials at (1) 60° C./dry heat and (2) 40° C. and 75% relative humidity (RH).
The HPLC traces analyses were conducted on an Agilent 1100 LC, equipped with Agilent Diode Array Detector and Chemstation Software using the conditions found in the table below.

For data set [3] the following is noted: human, in vivo.
Data set [4] is described as follows: Physical state and moisture uptake of 1:1 acid admixtures on storage. Type of data set: physicochemical. Particulars: 40° C. and 75% RH, open top vial. As to the method: as §1
All admixture samples and the control samples stored at the 60° C. and dry heat condition remained as dry powders.

Data set [5] is described as follows: Single-dose food effect study in dogs. The format is in vivo. Particulars: formulation that did not comprise at least one acidulant. From the text: Such food effects can cause difficulty during human testing of drugs as the fed or fasted condition of the patient can cause exposure or bioavailability of drugs to vary widely.
Data set [6] concerns the target TrkB (Homo sapiens, UniProt Q16620). Particulars: background statement; cited from earlier work.
A short description of data set [7]: Comparative pharmacokinetic study of F1 and F2 with lansoprazole (Example 12). The format is in vivo, human. Particulars: 800 mg fixed dose, 23 healthy subjects, body weights 55 to 106 kg. As to the method:
A comparative pharmacokinetic study in healthy, human subjects was conducted comparing a 200 mg dosage strength of pharmaceutical composition F1 (as described in Example 11) with a 200 mg dosage strength pharmaceutical composition F2 (as described in Example 10).
Pharmaceutical compositions F1 and F2, along with and lansoprazole, were administered orally with approximately 240 mL of water, according to the randomization scheme. Lansoprazole was administered as 30 mg lansoprazole delayed-release capsules.
Subjects were randomized into two groups, A and B. Periods 1 and 2 were conducted as a crossover design under fasting conditions where all subjects received F1 and F2. […] A representative summary of Periods 1, 2, and 3 and the pharmaceutical compositions subjects in groups A and B will receive in each Period is found below.
Lansoprazole administration on days 1 to 9 was conducted in the morning, approximately 1.5 hours prior to administration of either F1 or F2 at hour 0 on day 4.
Subjects were randomized and received 3 out of 4 treatments in one of the following sequences: […] (i.e., Periods 1 and 2 were conducted as a crossover design under fasting conditions [Treatments A and B]). […] Each subject received each of the 3 assigned treatments on one occasion.
Treatments A and C utilized 200 mg strength F1 capsules.
Treatments B and D utilized 200 mg F2 capsules. […]

Data set [8] addresses TrkC (Homo sapiens, UniProt Q16288). Particulars: background statement; cited from earlier work.
Setting [9] is: three months at 60° C. Dry Heat.

SMILES strings stand for the structures.

TrkC, sequence (Q16288 32-839): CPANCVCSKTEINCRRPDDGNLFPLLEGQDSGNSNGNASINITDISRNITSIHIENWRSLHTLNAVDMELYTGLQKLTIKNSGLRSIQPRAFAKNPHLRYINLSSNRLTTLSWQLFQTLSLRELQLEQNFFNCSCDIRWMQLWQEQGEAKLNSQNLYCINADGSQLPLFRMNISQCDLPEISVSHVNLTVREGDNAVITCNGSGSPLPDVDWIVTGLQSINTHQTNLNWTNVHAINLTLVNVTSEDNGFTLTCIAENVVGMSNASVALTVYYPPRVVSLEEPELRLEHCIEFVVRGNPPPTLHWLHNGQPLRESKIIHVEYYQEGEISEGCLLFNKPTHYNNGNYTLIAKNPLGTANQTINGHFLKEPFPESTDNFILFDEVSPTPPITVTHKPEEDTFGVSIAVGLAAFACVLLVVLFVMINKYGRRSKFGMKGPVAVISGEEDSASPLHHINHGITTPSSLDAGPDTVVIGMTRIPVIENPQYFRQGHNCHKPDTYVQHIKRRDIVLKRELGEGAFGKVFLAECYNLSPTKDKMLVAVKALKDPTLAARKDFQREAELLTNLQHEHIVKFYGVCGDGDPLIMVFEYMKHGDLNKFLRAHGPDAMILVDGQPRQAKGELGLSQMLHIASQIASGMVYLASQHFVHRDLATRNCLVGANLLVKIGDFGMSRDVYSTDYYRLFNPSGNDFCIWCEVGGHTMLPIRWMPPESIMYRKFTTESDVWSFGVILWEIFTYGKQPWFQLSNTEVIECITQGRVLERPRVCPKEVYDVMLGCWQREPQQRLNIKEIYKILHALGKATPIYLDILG
TrkB, sequence (Q16620 32-822): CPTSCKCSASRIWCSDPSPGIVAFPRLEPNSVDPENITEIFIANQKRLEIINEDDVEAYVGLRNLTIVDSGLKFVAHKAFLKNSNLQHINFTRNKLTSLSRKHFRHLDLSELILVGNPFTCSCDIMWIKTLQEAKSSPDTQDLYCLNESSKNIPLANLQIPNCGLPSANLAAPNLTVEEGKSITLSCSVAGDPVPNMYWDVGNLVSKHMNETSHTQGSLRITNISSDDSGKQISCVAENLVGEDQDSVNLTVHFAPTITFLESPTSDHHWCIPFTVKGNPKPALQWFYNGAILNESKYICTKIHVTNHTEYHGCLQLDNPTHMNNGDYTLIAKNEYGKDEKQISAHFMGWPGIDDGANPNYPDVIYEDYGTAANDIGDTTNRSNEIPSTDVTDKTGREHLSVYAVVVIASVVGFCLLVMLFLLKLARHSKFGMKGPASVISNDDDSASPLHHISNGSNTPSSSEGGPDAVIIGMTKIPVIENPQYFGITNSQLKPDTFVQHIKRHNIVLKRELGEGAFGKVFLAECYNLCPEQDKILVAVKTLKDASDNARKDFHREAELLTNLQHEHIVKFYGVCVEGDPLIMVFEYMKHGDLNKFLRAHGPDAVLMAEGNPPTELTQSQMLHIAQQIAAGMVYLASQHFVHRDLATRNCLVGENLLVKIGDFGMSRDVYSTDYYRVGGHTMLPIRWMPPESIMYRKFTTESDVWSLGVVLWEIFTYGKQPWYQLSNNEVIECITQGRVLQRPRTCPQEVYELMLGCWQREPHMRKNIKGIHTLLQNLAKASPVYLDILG
anaplastic lymphoma kinase (ALK), sequence (Q9UM73 19-1620): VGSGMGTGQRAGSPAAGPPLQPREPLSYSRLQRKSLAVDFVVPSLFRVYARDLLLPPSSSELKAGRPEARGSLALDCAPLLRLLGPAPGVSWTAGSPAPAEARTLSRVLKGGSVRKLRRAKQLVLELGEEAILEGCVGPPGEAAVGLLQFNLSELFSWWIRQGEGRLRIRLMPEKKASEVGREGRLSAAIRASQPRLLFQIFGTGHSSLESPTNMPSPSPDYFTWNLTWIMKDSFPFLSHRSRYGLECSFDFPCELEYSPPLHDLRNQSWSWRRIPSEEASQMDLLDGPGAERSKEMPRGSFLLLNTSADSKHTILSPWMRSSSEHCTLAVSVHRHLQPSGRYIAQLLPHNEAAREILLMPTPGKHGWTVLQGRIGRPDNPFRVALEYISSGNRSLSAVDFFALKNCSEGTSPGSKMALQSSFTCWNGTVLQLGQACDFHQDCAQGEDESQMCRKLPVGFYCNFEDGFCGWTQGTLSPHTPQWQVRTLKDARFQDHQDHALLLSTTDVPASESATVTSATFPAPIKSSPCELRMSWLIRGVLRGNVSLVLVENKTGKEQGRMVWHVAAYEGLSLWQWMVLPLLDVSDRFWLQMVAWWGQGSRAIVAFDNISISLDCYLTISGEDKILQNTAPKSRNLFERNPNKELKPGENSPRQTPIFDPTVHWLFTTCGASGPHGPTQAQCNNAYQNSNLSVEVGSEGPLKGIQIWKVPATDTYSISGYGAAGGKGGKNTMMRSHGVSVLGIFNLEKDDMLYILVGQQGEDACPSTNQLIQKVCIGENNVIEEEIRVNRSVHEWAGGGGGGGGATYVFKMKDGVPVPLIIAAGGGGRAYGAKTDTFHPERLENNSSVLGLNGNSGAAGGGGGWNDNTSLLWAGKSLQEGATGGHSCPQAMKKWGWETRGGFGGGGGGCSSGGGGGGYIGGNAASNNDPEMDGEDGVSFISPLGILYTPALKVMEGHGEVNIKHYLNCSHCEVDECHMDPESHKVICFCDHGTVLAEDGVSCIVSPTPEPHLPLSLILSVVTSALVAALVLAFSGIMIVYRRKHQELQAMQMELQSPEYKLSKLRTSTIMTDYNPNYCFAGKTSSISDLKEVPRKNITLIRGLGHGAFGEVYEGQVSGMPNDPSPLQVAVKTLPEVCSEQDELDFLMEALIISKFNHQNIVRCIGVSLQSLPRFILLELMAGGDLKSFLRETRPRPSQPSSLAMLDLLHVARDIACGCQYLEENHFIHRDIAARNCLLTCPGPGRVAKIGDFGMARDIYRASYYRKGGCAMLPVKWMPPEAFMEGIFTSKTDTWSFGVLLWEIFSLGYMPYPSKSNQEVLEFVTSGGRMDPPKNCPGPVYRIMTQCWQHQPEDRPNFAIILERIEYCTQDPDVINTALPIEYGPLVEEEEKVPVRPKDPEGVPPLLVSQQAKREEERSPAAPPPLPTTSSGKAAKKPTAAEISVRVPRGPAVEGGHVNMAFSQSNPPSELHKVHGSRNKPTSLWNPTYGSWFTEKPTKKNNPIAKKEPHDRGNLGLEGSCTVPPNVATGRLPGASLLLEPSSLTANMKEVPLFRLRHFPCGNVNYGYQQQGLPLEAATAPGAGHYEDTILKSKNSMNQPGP

For the compound `CN1CCN(c2ccc(C(=O)Nc3n[nH]c4ccc(Cc5cc(F)cc(F)c5)cc34)c(NC3CCOCC3)c2)CC1` [N-[5-(3,5-difluorobenzyl)-1H-indazol-3-yl]-4-(4-methyl-piperazin-1-yl)-2-(tetrahydro-pyran-4-ylamino)-benzamide], the “inhibition of tyrosine kinase” value in data set [1], in data set [6] and in data set [8] was “potent inhibitor” each time. For the same compound, the entries for the “% UV Purity” value in data set [2] (three months at 40° C./75% RH) and in data set [2] (setting [9]) were 99.2% and 99.3%, respectively. Further, the “Most abundant impurity (area %)” value worked out at 0.13% in data set [2] (three months at 40° C./75% RH, listed as Control); 0.13% in data set [2] (three months at 40° C./75% RH, listed as control); 0.13% in data set [2] (setting [9]). Further, the “exposures with concomitant proton pump inhibitor drugs (PPIs), such as lansoprazole” value in data set [3] is “variable”. Moreover, the “AUC higher when taken with food” value in data set [3] (400 mg/m2) was roughly 50%. For the same compound, the “Cmax higher with food” value in data set [3] (400 mg/m2) is given as “approximately 150%”. The “physical state after 13 days of storage” value in data set [4] is reported as “remained dry”. Besides, the “exposure levels under fed conditions compared to fasting conditions” value in data set [5] is “approximately 2 fold”. Besides, the “correlation of total exposure with body weight or body surface area” value in data set [7] is “did not correlate with body weight or body surface area”.
